Here are results for 3 compounds from US8008250B2, “Macrocyclic compounds and compositions useful as BACE inhibitors” (Novartis AG, priority 2005, dated 2011).

Structures are written as SMILES.

The term melting point denotes the temperature of the solid-liquid transition. One may read the IC50 as the midpoint of a concentration-inhibition curve. A lower IC50 goes with inhibition by little substance.

One series has as its target T1, human BACE (Homo sapiens, UniProt P56817).
T1 construct: Recombinant BACE (extracellular domain, expressed in baculovirus and purified using standard methods); made in house
Nature of the series: Test 1: Inhibition of Human BACE. To be noted: test not named; sentence follows 'at least one of the above-indicated tests'; assigned to BACE Test 1. It is filed as biochemical. Here is the method:
Test 1: Inhibition of Human BACE
Recombinant BACE (extracellular domain, expressed in baculovirus and purified using standard methods) at 6 nM concentration is incubated with the test compound at various concentrations for 1 hour at room temperature in 100 mM acetate buffer, pH 4.5, containing 0.1% CHAPS. Synthetic peptide substrate Mca-Ser-Glu-Val-Asn-Leu-Asp-Ala-Glu-Phe-Lys(DNP) (SEQ ID NO: 1) is added to a final concentration of 3 μM and the increase in fluorescence is recorded at excitation of 325 nm and emission at 400 nm in a microplate spectro-fluorimeter for 20 minutes in 1-minute intervals. IC50 values are calculated from percentage of inhibition of BACE-activity as a function of the test compound concentration.

T1 sequence (P56817 46-457 limits assumed): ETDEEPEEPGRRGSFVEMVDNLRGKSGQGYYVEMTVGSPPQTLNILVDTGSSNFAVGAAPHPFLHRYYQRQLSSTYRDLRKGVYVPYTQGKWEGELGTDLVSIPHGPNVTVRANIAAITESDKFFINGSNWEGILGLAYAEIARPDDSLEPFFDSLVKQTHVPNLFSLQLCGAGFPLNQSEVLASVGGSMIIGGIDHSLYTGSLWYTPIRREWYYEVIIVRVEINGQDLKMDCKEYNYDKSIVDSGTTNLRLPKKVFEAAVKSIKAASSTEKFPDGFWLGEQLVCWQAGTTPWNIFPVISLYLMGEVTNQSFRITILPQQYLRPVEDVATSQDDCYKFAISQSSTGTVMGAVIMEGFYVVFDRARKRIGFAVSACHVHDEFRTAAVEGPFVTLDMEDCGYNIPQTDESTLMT

`CC(C)c1cccc(CNC[C@@H](O)[C@@H]2Cc3cccc(c3)OCCCCS(=O)(=O)C[C@@H](C)C(=O)N2)c1` [Example 6, (9S,12S)-12-[(R)-1-Hydroxy-2-(3-isopropyl-benzylamino)-ethyl]-9-methyl-7,7-dioxo-2-oxa-7lambda*6*-thia-11-aza-bicyclo[12.3.1]octadeca-1(18),14,16-trien-10-one] showed a melting point of 148 to 150 °C.

`CC(C)c1cccc(CNC[C@@H](O)[C@@H]2Cc3cccc(c3)OCCCCCC(=O)N(C)[C@@H](C)C(=O)N2)c1` [Example 1, (10S,13S)-13-[(R)-1-Hydroxy-2-(3-isopropyl-benzylamino)-ethyl]-9,10-dimethyl-2-oxa-9,12-diaza-bicyclo[13.3.1]nonadeca-1(19),15,17-triene-8,11-dione] had a melting point of 132 to 135 °C.

As for `CC(C)c1cccc(CNC[C@@H](O)[C@@H]2Cc3cccc(c3)CCCCCCC(=O)N(C)[C@@H](C)C(=O)N2)c1` [Example 4, (3S,6S)-3-[(R)-1-Hydroxy-2-(3-isopropyl-benzylamino)-ethyl]-6,7-dimethyl-4,7-diaza-bicyclo[13.3.1]nonadeca-1(18),15(19),16-triene-5,8-dione], the IC50 on human BACE worked out at 250 nM.
